Values after ≈ are worked out from the molar mass of the structure shown. Where two headings read alike, the source gives them in different places. Values belong to the compound of their own block, whether it stands above or below them.
Columns and labels:
[1] = In vivo PK experiments in beagle dogs, oral gavage
Experimental: The samples were detected by LC-MS/MS, and AUC, Cmax, and Tmax parameters were calculated by employing WinNonlin version 6.4.

[2] = Solubility test in water and biological vehicles (FaSSIF, FeSSIF); format: physicochemical; details: for solubility at 24 h: thermodynamic from solid, 37° C., HPLC, crystal form A calculated based on the free acid
[3] = background art; cited from earlier work
[4] = dog, blood, beagle dogs, P.O. 300 mg/kg, single oral gavage

Amount of exposure in the organism compared with compound 1-8 ([1]; in vivo pharmacokinetic studies, versus compound 1-8): significantly increased | Solubility in biological media compared with compound 1-8 ([2]; biological media, versus compound 1-8): significantly improved | Solubility in water compared with free acid compound 1-8 ([2]; water, versus compound 1-8): nearly hundredfold improved
Compound: CC/C(=C(/c1ccc(/C=C/C(=O)O)cc1)c1[nH]c2ccccc2c1Cl)c1ccc(F)cc1Cl [compound of formula (I)]

AUC(0-t) [1, 4]: 613 µM·h | Cmax [1, 4]: 43.5 µM | Tmax [1, 4]: 6 h | MRT last ([1]; dog, blood, beagle dogs, P.O. 300 mg/kg, single oral gavage, read-out: MRT0-last): 10.6 h | solubility at 24 h ([2]; FaSSIF (simulated pre-meal intestinal fluid), read-out: Solubility in FaSSIF): 117 µg/mL (≈ 244 µM) | solubility at 24 h ([2]; FeSSIF (simulated post-meal intestinal fluid), read-out: Solubility in FeSSIF): 440 µg/mL (≈ 916 µM) | solubility at 24 h ([2]; purified water, read-out: Solubility in H2O): 8 µg/mL (≈ 16.7 µM)
Compound: CC/C(=C(/c1ccc(/C=C/C(=O)O)cc1)c1[nH]c2ccccc2c1Cl)c1ccc(F)cc1Cl [compound I-8]

Compound: C[C@]12CC[C@@H]3c4ccc(O)cc4C[C@@H](CCCCCCCCC[S+]([O-])CCCC(F)(F)C(F)(F)F)[C@H]3[C@@H]1CC[C@@H]2O (some centres unmarked) [fulvestrant]
Oral bioavailability [3]: zero oral bioavailability
